Test results: patent US20120132594A1, “AQUEOUS SOLVENTS FOR HYDROCARBONS AND OTHER HYDROPHOBIC COMPOUNDS” (IMPERIAL INNOVATIONS LIMITED, priority 2009, published 2012)

Assay: Extraction of organic standards from spiked JSC-1 rock with aqueous polysorbate 80 solution, GC-MS
Format: physicochemical
Settings: ultrasonication 20 minutes
Protocol: JSC-1, a Martian and lunar analogue (McKay et al. (1993) JSC-1: A new lunar regolith simulant. Lunar and Planetary Institute Conference Abstracts), was spiked with various hydrocarbon compound classes (Table 1 below). All are known to be soluble in organic solvents, and are considered mostly insoluble in water with the exception of atrazine. 1 ml of a mixture of 10.0 ng ml^−1 hydrocarbon standards were spiked on to 1 g of rock, the concentrations of each non-aromatic standard amounted to 10.0 ng g^−1 rock (10 ppb). Terphenyl (an aromatic compound) was used as a second quantitation standard, added just before analysis in order to establish extraction efficiencies for the JSC-1 rock.
1 g samples of spiked JSC-1 rock were placed in test tubes, with 3 ml solvent and the mixture subjected to ultrasonication (20 minutes). The solvent was an aqueous surfactant solution containing polysorbate 80 in various amounts (either 1.5 g/L or 2.5 g/L), as set out in Table 1 below. The surfactant was dissolved either in water that contains 20% methanol (referred to in Table 1 as “w MeOH”) or pure water (“w/o MeOH”). After sonication the mixture was centrifuged (2500 rpm×10 min) and the supernatant pipetted into a test tube. A liquid/liquid extraction was then performed with dichloromethane, the dichloromethane was then blown down via nitrogen to 1 ml ready for further analysis by gas chromatography-mass spectrometry.
The organic constituents of extracts were separated on an Agilent technologies 6890N gas chromatograph. Extracts were dissolved in 1 ml dichloromethane and 1 μl was introduced via splitless injection into a HP-5 (0.25 mm×30 m×[…]) capillary column in a helium carrier gas. The column oven was operated with a temperature programme starting at 50° C. for 1 min followed by a ramp of 5° C. min−1 until 310° C. where the temperature was held for 20 min. Individual compounds were identified by introducing the column effluent into an Agilent technologies 5973 inert mass selective detector operated with a 12 min solvent delay and a scan range of m/z 50-550.
The extraction efficiency is measured as the percentage of the organic compounds that are extracted as compared to the amount originally present in the rock. […] Other variables include temperature and pressure. As can also be seen from Table 1, the optimum recovery appears to take place between about 0.5 an 3 grams per litre of polysorbate 80, which corresponds to 40 to 230 times the cmc of polysorbate 80.

[1] = polysorbate 80 1.5 g/L, with MeOH (water containing 20% methanol)
[2] = polysorbate 80 1.5 g/L, without MeOH (pure water)
[3] = polysorbate 80 2.5 g/L, with MeOH (water containing 20% methanol)
[4] = polysorbate 80 2.5 g/L, without MeOH (pure water)

SMILES | Extraction efficiency [1] [%] | Extraction efficiency [2] [%] | Extraction efficiency [3] [%] | Extraction efficiency [4] [%]
c1ccc2cc3ccccc3cc2c1 [Anthracene] | 0 | 0 | 5.2 | 22.86
CCNc1nc(Cl)nc(NC(C)C)n1 [Atrazine] | 7.35 | 12.6 | 5.4 | 5.62
c1ccc2c(c1)c1cccc3ccc4cccc2c4c31 [Benzo(e)pyrene] | 2.38 | 0 | 20.33 | 30.55
CCCCCCCCCCCCCCCC [Hexadecane] | 4.21 | 14.2 | 0.54 | 0.73
CCC(C)CCCC(C)CCCC(C)CCCC(C)C (stereo not shown) [Phytane] | 8.91 | 29.08 | 0.93 | 10.7
CC(C)=CCC/C(C)=C/CC/C(C)=C/CC/C=C(\C)CC/C=C(\C)CCC=C(C)C [Squalene] | 6.11 | 19.71 | 0.58 | 9.11
CC[C@H](/C=C/[C@@H](C)[C@H]1CC[C@H]2[C@@H]3CC=C4C[C@@H](O)CC[C@]4(C)[C@H]3CC[C@]12C)C(C)C [Stigmasterol] | 0 | 0 | 3.06 | 10.88
